Read-outs that look alike come from different tables or passages of the source.

This experiment has as its target T1, full-length beta-Catenin (Uniprot ID P35222) (Homo sapiens, UniProt P35222).
T1 construct: 10 nM full-length beta-Catenin (Uniprot ID P35222)
T1 sequence (P35222 1-781): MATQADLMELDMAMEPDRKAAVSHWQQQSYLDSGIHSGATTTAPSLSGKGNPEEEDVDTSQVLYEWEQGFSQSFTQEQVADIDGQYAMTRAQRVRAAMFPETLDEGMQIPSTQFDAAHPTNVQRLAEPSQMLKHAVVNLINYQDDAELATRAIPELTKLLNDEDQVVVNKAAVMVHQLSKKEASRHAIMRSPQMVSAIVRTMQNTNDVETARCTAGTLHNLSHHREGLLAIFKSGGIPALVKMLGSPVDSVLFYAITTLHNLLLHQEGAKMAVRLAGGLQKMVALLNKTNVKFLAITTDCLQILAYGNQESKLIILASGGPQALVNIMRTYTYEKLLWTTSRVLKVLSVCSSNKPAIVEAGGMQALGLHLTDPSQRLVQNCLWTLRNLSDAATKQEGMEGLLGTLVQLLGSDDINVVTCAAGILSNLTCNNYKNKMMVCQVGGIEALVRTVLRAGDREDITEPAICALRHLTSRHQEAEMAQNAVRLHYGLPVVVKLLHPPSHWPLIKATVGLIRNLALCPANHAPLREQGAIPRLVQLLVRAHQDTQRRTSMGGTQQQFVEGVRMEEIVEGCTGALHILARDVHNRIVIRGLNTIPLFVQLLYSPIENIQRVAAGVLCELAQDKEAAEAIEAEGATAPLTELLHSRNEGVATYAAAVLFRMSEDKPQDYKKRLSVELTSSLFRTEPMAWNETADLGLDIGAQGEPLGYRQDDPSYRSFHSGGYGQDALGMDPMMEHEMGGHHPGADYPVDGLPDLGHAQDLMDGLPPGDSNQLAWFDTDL
In words: Fluorescence polarization IC50 (beta-catenin / 5FAM-TCF4 10-53 competition). Type of experiment: binding. For orientation: Polarisation of emitted light reports the rotation of a fluorescent probe.

The mark [1] stands for this setting: fluorescence polarization, read-out: beta-Catenin FP IC50.
[2] abbreviates: fluorescence polarization, beta-catenin, read-out: FP EC50.

For the compound `C[C@@H]1NC(=O)[C@H](C)NC(=O)[C@H](CC(=O)O)NC(=O)[C@H](CC(=O)O)NC(=O)C2(CCCC=CCCCOC(=O)N3CC[C@@](C(=O)N[C@@H](Cc4ccsc4)C(=O)N[C@@H](Cc4csc5ccccc45)C(=O)N[C@@H](CCC(N)=O)C(N)=O)(C3)NC(=O)[C@H](CC(N)=O)NC(=O)[C@H](Cc3ccccc3)NC1=O)CCCC=CCS(=O)(=O)N1CCCC1C(=O)N[C@@H](CC(=O)O)C(=O)N[C@@H](CC(C)(C)C)C(=O)N2` (single isomer, unassigned) [I-1576, ProSAm3-Asp-Npg-B5-Asp-Asp-Ala-Ala-Phe-Asn-PyrS2-3Thi-BztA-Gln-NH2], under setting [1], the IC50 was found to be 0.224 µM.
In the case of `C[C@@H]1NC(=O)[C@H](C)NC(=O)[C@H](CC(=O)O)NC(=O)[C@H](CC(=O)O)NC(=O)C2(CCCC=CCCCOC(=O)N3CC[C@@](C(=O)N[C@@H](Cc4ccsc4)C(=O)N[C@@H](Cc4csc5ccccc45)C(=O)N[C@@H](CCC(N)=O)C(N)=O)(C3)NC(=O)[C@H](CC(N)=O)NC(=O)[C@H](Cc3ccccc3)NC1=O)CCCC=CCS(=O)(=O)N1CCCC1C(=O)N[C@@H](CC(=O)O)C(=O)N[C@@H](CC(C)(C)C)C(=O)N2` (single isomer, unassigned) [I-1577, ProSAm3-Asp-Npg-B5-Asp-Asp-Ala-Ala-Phe-Asn-PyrS2-3Thi-BztA-Gln-NH2], the IC50 under setting [1] was found to be 0.045 µM.
Still for that read-out and setting: in the case of `CC(=O)N1CCC[C@]12CC=CCCCC1(CCCC=CCCCOC(=O)N3CC[C@@](C(=O)N[C@@H](Cc4ccccc4C(F)(F)F)C(=O)N[C@@H](Cc4csc5ccccc45)C(=O)N[C@@H](CO)C(N)=O)(C3)NC(=O)[C@H](CC(C)C)NC(=O)[C@H](Cc3ccccc3)NC(=O)[C@H](C)NC(=O)[C@H](C)NC(=O)[C@H](Cc3ccccc3C(=O)O)NC(=O)[C@H](CC(=O)O)NC1=O)NC(=O)[C@H](CC(C)(C)C)NC(=O)[C@H](CC(=O)O)NC2=O` (single isomer, unassigned) [I-1660, Ac-PL3-Asp-Npg-B5-Asp-2COOHF-Ala-Ala-Phe-Leu-PyrS2-2F3MeF-BztA-Ser-NH2] it was 0.099 µM; in that of `CC(=O)N1CCC[C@]12CC=CCCCC1(CCCC=CCCCOC(=O)N3CC[C@@](C(=O)N[C@@H](Cc4ccsc4)C(=O)N[C@@H](Cc4csc5ccccc45)C(=O)N[C@@H](CCC(N)=O)C(N)=O)(C3)NC(=O)[C@H](CC(N)=O)NC(=O)[C@H](Cc3ccccc3)NC(=O)[C@H](C)NC(=O)[C@H](C)NC(=O)[C@H]([C@@H](C)O)NC(=O)[C@H](CC(N)=O)NC1=O)NC(=O)[C@H](CC(C)(C)C)NC(=O)[C@H](Cc1ccccc1C(=O)O)NC2=O` (single isomer, unassigned) [I-2136, Ac-PL3-2COOHF-Npg-B5-Asn-Thr-Ala-Ala-Phe-Asn-PyrS2-3Thi-BztA-Gln-NH2], 5.82 µM; in that of `CC(=O)N1CCC[C@]12CC=CCCCC1(CCCC=CCCCOC(=O)N3CC[C@@](C(=O)N[C@@H](Cc4ccsc4)C(=O)N[C@@H](Cc4csc5ccccc45)C(=O)N[C@@H](CCC(N)=O)C(N)=O)(C3)NC(=O)[C@H](CC(N)=O)NC(=O)[C@H](Cc3ccccc3)NC(=O)[C@H](C)NC(=O)[C@H](C)NC(=O)[C@H]([C@@H](C)O)NC(=O)[C@H](CC(N)=O)NC1=O)NC(=O)[C@H](CC(C)(C)C)NC(=O)[C@H](Cc1ccccc1C(=O)O)NC2=O` (single isomer, unassigned) [I-2137, Ac-PL3-2COOHF-Npg-B5-Asn-Thr-Ala-Ala-Phe-Asn-PyrS2-3Thi-BztA-Gln-NH2], 1.9 µM.
On to `CC(=O)N1CCC[C@]12CC=CCCCC1(CCCC=CCCCOC(=O)N3CC[C@@](C(=O)N[C@@H](Cc4ccsc4)C(=O)N[C@@H](Cc4csc5ccccc45)C(=O)N[C@@H](CCC(N)=O)C(N)=O)(C3)NC(=O)[C@H](CC(C)C)NC(=O)C(Cc3cccc(C(=O)Oc4ccccc4)c3)NC(=O)[C@H](C)NC(=O)[C@H](C)NC(=O)[C@H](CN(CC(=O)O)CC(F)(F)F)NC(=O)[C@H](CC(=O)O)NC1=O)NC(=O)[C@H](CC(C)(C)C)NC(=O)[C@H](CC(=O)O)NC2=O` (single isomer, unassigned) [I-2150, Ac-PL3-Asp-Npg-B5-Asp-TfeGA-Ala-Ala-3CO2PhF-Leu-PyrS2-3Thi-BztA-Gln-NH2], for which, under setting [1], the IC50 was 0.647 µM.
On the same count and under the same terms, in the case of `CNC(=O)C[C@@H]1NC(=O)C2(CCCC=CCCCCCC[C@@](C)(C(=O)N[C@@H](Cc3ccccc3)C(=O)N[C@@H](Cc3csc4ccccc34)C(=O)N[C@@H](CCC(N)=O)C(N)=O)NC(=O)[C@H](C(C)C)NC(=O)[C@H](Cc3ccccc3)NC(=O)[C@H](C)NC(=O)[C@H](C)NC(=O)[C@H](CC(=O)O)NC1=O)CCCC=CC[C@]1(CCCN1C(C)=O)C(=O)N[C@@H](CC(=O)O)C(=O)N[C@@H](C)C(=O)N2` (stereo partly drawn) [I-540, Ac-PL3-Asp-Ala-B5-[NHMe]AsnR-Asp-Ala-Ala-Phe-Val-S8-Phe-BztA-Gln-NH2] it was 5 µM.
As to `CC(=O)N1CCC[C@]12CC=CCCCC1(CCCC=CCCCOC(=O)N3CC[C@@](C(=O)N[C@@H](Cc4ccsc4)C(=O)N[C@@H](Cc4csc5ccccc45)C(=O)N[C@@H](CCC(N)=O)C(=O)O)(C3)NC(=O)[C@H](CC(N)=O)NC(=O)[C@H](CC(=O)O)NC(=O)[C@H](C)NC(=O)[C@H](C)NC(=O)[C@H](CC(=O)O)NC(=O)[C@H](CC(=O)O)NC1=O)NC(=O)[C@H](CC(C)(C)C)NC(=O)[C@H](Cc1ccccc1)NC2=O` (stereo partly drawn) [I-1027, Ac-PL3-Phe-Npg-B5-Asp-Asp-Ala-Ala-Asp-Asn-PyrS2-3Thi-BztA-Gln-OH], the IC50 under setting [2] came out at 1.14 µM.
Consider `CC(=O)N1CCC[C@]12CC=CCCCC1(CCCC=CCCCOC(=O)N3CC[C@@](C(=O)N[C@@H](Cc4ccccc4Cl)C(=O)N[C@@H](Cc4csc5ccccc45)C(=O)N4CCC[C@H]4CO)(C3)NC(=O)[C@H](CC(N)=O)NC(=O)[C@H](Cc3ccccc3)NC(=O)[C@H](C)NC(=O)[C@H](C)NC(=O)[C@H](CC(=O)O)NC(=O)[C@H](CC(=O)O)NC1=O)NC(=O)[C@H](CC(C)(C)C)NC(=O)[C@H](CC(=O)O)NC2=O` (stereo partly drawn) [I-1084, Ac-PL3-Asp-Npg-B5-Asp-Asp-Ala-Ala-Phe-Asn-PyrS2-2C1F-BztA-Proo1], for which the IC50 (read-out: beta-Catenin FP IC50) is 0.368 µM.
Consider `CC(=O)N1CCC[C@]12CC=CCCCC1(CCCC=CCCCOC(=O)N3CC[C@@](C(=O)N[C@@H](Cc4ccccc4Cl)C(=O)N[C@@H](Cc4csc5ccccc45)C(=O)N[C@@H](CN4CCOCC4)C(N)=O)(C3)NC(=O)[C@H](CC(N)=O)NC(=O)[C@H](Cc3ccccc3)NC(=O)[C@H](C)NC(=O)[C@H](C)NC(=O)[C@H](CC(=O)O)NC(=O)[C@H](CC(=O)O)NC1=O)NC(=O)[C@H](CC(C)(C)C)NC(=O)[C@H](CC(=O)O)NC2=O` (stereo partly drawn) [I-1133, Ac-PL3-Asp-Npg-B5-Asp-Asp-Ala-Ala-Phe-Asn-PyrS2-2C1F-BztA-MorphAla-NH2], for which the IC50 under setting [1] was determined as 0.005 µM.
`CC(=O)N1CCC[C@]12CC=CCCCC1(CCCC=CCCCOC(=O)N3CC[C@@](C(=O)N[C@@H](Cc4ccccc4Cl)C(=O)N[C@@H](Cc4csc5ccccc45)C(=O)N[C@@H](CN4CCOCC4)C(N)=O)(C3)NC(=O)[C@H](CC(N)=O)NC(=O)[C@H](Cc3ccccc3)NC(=O)[C@H](C)NC(=O)[C@H](C)NC(=O)[C@H](CC(=O)O)NC(=O)[C@H](CC(=O)O)NC1=O)NC(=O)[C@H](CC(C)(C)C)NC(=O)[C@H](CC(=O)O)NC2=O` (stereo partly drawn) [I-1134, Ac-PL3-Asp-Npg-B5-Asp-Asp-Ala-Ala-Phe-Asn-PyrS2-2C1F-BztA-MorphAla-NH2]: the IC50 was found to be 0.006 µM under setting [2] and 0.006 µM under setting [1].
Regarding `CC(=O)N1CCC[C@]12CC=CCCCC1(CCCC=CCCCOC(=O)N3CC[C@@](C(=O)N[C@@H](Cc4ccccc4Cl)C(=O)N[C@@H](Cc4csc5ccccc45)C(=O)N[C@@H](CCC(N)=O)C(N)=O)(C3)NC(=O)[C@H](CO)NC(=O)[C@H](Cc3ccccc3)NC(=O)[C@H](CC(C)C)NC(=O)[C@H](C)NC(=O)[C@H](CC(=O)O)NC(=O)[C@H](CC(=O)O)NC1=O)NC(=O)[C@H](Cc1ccccc1)NC(=O)[C@H](CC(=O)O)NC2=O` (stereo partly drawn) [I-1154, Ac-PL3-Asp-Phe-B5-Asp-Asp-Ala-Leu-Phe-Ser-PyrS2-2C1F-BztA-Gln-NH2], the IC50 under setting [1] worked out at 0.045 µM.
The same measure, in the same setting: in the case of `CC(=O)N1CCC[C@]12CC=CCCCC1(CCCC=CCCCOC(=O)N3CC[C@@](C(=O)N[C@@H](Cc4ccccc4Cl)C(=O)N[C@@H](Cc4csc5ccccc45)C(=O)N[C@@H](CCC(N)=O)C(N)=O)(C3)NC(=O)[C@H](CO)NC(=O)[C@H](Cc3ccccc3)NC(=O)[C@H](CC(C)C)NC(=O)[C@H](CC(C)C)NC(=O)[C@H](CC(=O)O)NC(=O)[C@H](CC(=O)O)NC1=O)NC(=O)[C@H](Cc1ccccc1)NC(=O)[C@H](CC(=O)O)NC2=O` (stereo partly drawn) [I-1155, Ac-PL3-Asp-Phe-B5-Asp-Asp-Leu-Leu-Phe-Ser-PyrS2-2C1F-BztA-Gln-NH2] it was 0.06 µM; in that of `CC(=O)N1CCC[C@]12CC=CCCCC1(CCCC=CCCCOC(=O)N3CC[C@@](C(=O)N[C@@H](Cc4ccsc4)C(=O)N[C@@H](Cc4csc5ccccc45)C(=O)N[C@@H](CCC(N)=O)C(N)=O)(C3)NC(=O)[C@H](CC(N)=O)NC(=O)[C@H](Cc3ccccc3)NC(=O)[C@H](C)NC(=O)[C@H](C)NC(=O)[C@H](CN(CC(=O)O)CC(F)(F)F)NC(=O)[C@H](CC(=O)O)NC1=O)NC(=O)[C@H](CC(C)(C)C)NC(=O)[C@H](CC(=O)O)N(C)C2=O` (stereo partly drawn) [I-1162, Ac-PL3-NMeD-Npg-B5-Asp-TfeGA-Ala-Ala-Phe-Asn-PyrS2-3Thi-BztA-Gln-NH2], 1.53 µM.

(Values after patent US20240116985A1, “STAPLED PEPTIDES AND METHODS THEREOF” (priority 2020, published 2024).)
